Where a name gives a salt, the structure may show the parent alone. Read-outs that look alike come from different tables or passages of the source. Marks after values point to notes of the source that are not given here.
Experiments:
[1] = tested on: P388 lymphocytic leukemia cells; assay: MTT cytotoxicity assay with median effects (Chou and Talalay) analysis; format: cell-based, murine; settings: for IC50 / IC90: Mus musculus; for IC50: P388, 72 h, read-out: IC50 (concentration required to achieve 50% cell kill); for IC90: P388, read-out: IC90 drug concentration (90% cell kill)
Experimental: For in vitro analysis, P388 wild type and doxorubicin resistant (ADR) cells were obtained from the National Cancer Institute tissue repository (Bethesda, Md., USA) and were propagated in vivo. In brief, one vial of frozen ascites was removed from the nitrogen tank and thawed at 37° C. and cells were injected i.p. into female BDF-1 mice (6-8 weeks old, 20-22 g, Charles River Laboratories, St. Constant, QC, Canada). Transfer mice were euthanized and a peritoneal lavage was performed. With a 1 cc syringe with 20 gauge needle, 0.5-1.0 ml of peritoneal fluid was removed and aliquotted into a 15 ml falcon tube containing 5 ml of Hank's Balanced Salt Solution (HBSS, no calcium or magnesium). 0.5 ml aliquot was transferred into another 15 ml conical sterile tube containing 5 ml HBSS. The cells were exposed to plastic culture wear (for adherence of monocytes) and Ficoll-Paque density centrifugation (red blood cell removal). […] For each passage, 2 female BDF-1 mice were injected with 1×10^6 cells in 0.5 ml (2×10^6 cells/ml) of P388 cell suspension intraperitoneally. This was repeated every 6-8 days to a maximum of 20 passages. Cells adequate for animal experiments were used between the 3rd-20th passage. For tissue culture experiments such as MTT cytotoxicity assays, P388 cells were obtained following peritoneal lavage and treatment to remove red blood cells and peritoneal macrophages. […] In order to assess cytotoxicity the MTT (3-(4,5-dimethylthiazol-2-yl)-2,5-diphenyl tetrazolium bromide) assay was utilized. […] The wells in the perimeter of the 96 well microtiter plates contained 0.2 ml sterile water. […] Control wells consisted of media only (200 μl/well), or cells and media (no treatment). There were 6 replicates (per plate) for all control and treatment groups). […] The media was aspirated off and 0.15 ml DMSO was added per well and resuspended on a plate shaker (5-10 min). […] The cytotoxicity upon drug exposure was quantified by expressing the percent cell viability for each treatment relative to untreated control cells (% control). […] This was further analyzed by the median effects principle by Chou and Talalay, cited above. The method by Chou and Talalay was used to distinguish between synergy, antagonism and additive effects of combined drug treatments from in vitro MTT cytotoxicity assays. This method, now provided in a software package (Calculsyn; Biosoft, Cambridge, UK), derives a median effects equation (1) to correlate drug dose and effect. Fixed ratio combinations of idarubicin and gemcitabine were initially selected on the basis of IC50 of each drug. […] Data were reported as mean±S.D. from three separate experiments, performed in triplicate.

[2] = Dose range finding, maximum tolerable dose; format: in vivo; settings: no significant toxicity for 30 days
Experimental: Dose range finding studies of free and liposomal idarubicin and/or gemcitabine were performed in non-tumor bearing female BDF-1 mice. Mice were weighed daily and monitored for signs of stress or toxicity (e.g., lethargy, scruffy coat, ataxia).

[3] = tested on: P388 tumors
Experimental: For in vivo testing of antitumor activity was evaluated in P388 lymphocytic leukemia model.
Treatments commenced 24 hours post tumor cell inoculation. Treatment groups consisted of saline (control) and 0.5, 1, 2 and 3 mg/kg doses of free or liposomal idarubicin administered as a single i.v. bolus injection and between 100 to 500 mg/kg gemcitabine and 1 to 5 mg/kg liposomal gemcitabine (selected on the basis of dose range finding studies). Fixed dose ratios for combination treatments were defined on the basis of 0.66 MTD when used as a single agent. […] Median survival and percent weight loss was determined for each treatment.
All data values are reported as mean±standard deviation (S.D.). A standard one-way analysis of variance (ANOVA) was used to determine statistically significant differences of the means. For multiple comparisons, post-hoc analysis using the Tukey-Kramer test. Survival curves were computed using the Kaplan-Meier method. […] Treatment groups were subsequently analyzed using SPSS statistics software (SPSS Inc., Chicago, Ill., USA) and compared using a two sample log-rank test. P<0.05 was considered significant for all statistics tests.

[4] = tested on: non small cell lung cancer; settings: cited from earlier work
[5] = Plasma elimination of free and liposomal gemcitabine; format: in vivo, Balb/c mice; settings: 33 μmole gemcitabine/kg i.v.
Experimental: Pharmacokinetic Analysis: Balb/c mice breeders, 20-22 g, were purchased from Charles River Laboratories (St. Constant, QC, Canada) and bred in-house. Mice were housed in micro-isolator cages and given free access to food and water. All animal studies were conducted according to procedures approved by the University of British Columbia's Animal Care Committee and in accordance with the current guidelines established by the Canadian Council of Animal Care.
The plasma elimination of idarubicin and gemcitabine containing tracer quantities of 3[H]-gemcitabine was assessed. Mice were injected with 33 μmoles/kg drug administered intravenously into the lateral tail vein of Balb/c mice. At various time points up to 4 hours post drug administration, blood was collected by tail nick (collected in microfuge tubes) or cardiac puncture (collected in liquid EDTA coated tubes), centrifuged at 1000 g to isolate the plasma fraction. The plasma was placed in a separate microfuge tube and vortexed to ensure a homogenous distribution.
The tail nick procedure for obtaining blood samples was used to minimize the number of mice sacrificed. In this way, three blood samples could be obtained from a single mouse within a 24 hour time interval. In brief, the lateral tail vein of mice was nicked with a small sharp blade. A 25 μl glass pipette, pre-washed with EDTA, was used to withdraw blood. The blood was expelled into a microfuge tube containing 200 μl of 5% (wt/vol) EDTA and thoroughly mixed. Blood/EDTA samples were centrifuged for 10 minutes at 1000 g. The supernatant was transferred to a 1.5 ml microfuge tube. 250 μl Hank's balanced salt solution (HBSS) was added to the pellet, resuspended and centrifuged for 10 minutes at 1000 g. The supernatants were mixed together. Assuming a 48% hematocrit for a 20 gram Balb/c mice, approximately 13 μl plasma was obtained from a 25 μl blood sample. From the recovered plasma samples, aliquots were used to measure drug (and or lipid) concentrations.
The plasma elimination of liposomal drugs containing doxorubicin, daunorubicin, idarubicin, or gemcitabine samples administered intravenously into the lateral tail vein of Balb/c female mice was assessed. Mice were injected with 33 μmole/kg drug and 165 μmole/kg lipid. For liposomal gemcitabine samples, mice were injected with 33 μmole/kg gemcitabine at an approximate 0.1 drug-to-lipid mole ratio). At various time points post drug administration, blood was collected by tail nick or cardiac puncture. Plasma lipid and 3[H]-gemcitabine were quantified by liquid scintillation counting. Anthracyclines were extracted from plasma with a partitioning assay, followed by fluorescence spectrometer detection.
The plasma elimination data was modeled using WinNonlin (version 1.5) pharmacokinetic software (Pharsight Corporation, Mountain View, Calif., USA) to calculate pharmacokinetic parameters. […] The mean plasma AUC for a defined time interval was determined from the concentration-time curves and subsequent calculation by the standard trapezoidal rule.
Liposome mediated increases in gemcitabine blood residence time were also evaluated as follows: Free and liposomal gemcitabine formulations were administered to female Balb/c mice at a dose of 33 μmole gemcitabine/kg (9.9 mg/kg) and 165 μmole total lipid/kg.

[6] = at IC90, GEM/IDA 1:1 fixed molar ratio
[7] = at IC90, GEM/IDA 1:10 fixed molar ratio
[8] = female, Balb/c, mouse, iv, 33 μmole/kg, plasma

Nc1ccn([C@@H]2O[C@H](CO)[C@@H](O)C2(F)F)c(=O)n1 [GEM, gemcitabine hydrochloride]
IC50 [1]: 0.26 nM
IC90 [1]: 0.9 nM
dose reduction index (DRI) [1, 6]: 1.8
dose reduction index (DRI) [1, 7]: 14
fold more cytotoxic than idarubicin ([1]; from IC50): approximately 10 fold
maximum tolerable dose [2]: 500 mg/kg
% ILS ([3]; GEM 100 mg/kg): 63%
% Weight Change, day 5 ([3]; GEM 100 mg/kg): 0.4%
Cell Kill ([3]; GEM 100 mg/kg): 2.9 LOG10
MST ([3]; GEM 100 mg/kg): 13 days
Survivors ([3]; GEM 100 mg/kg): 0/6
% ILS ([3]; GEM 200 mg/kg): 81%
% Weight Change, day 5 ([3]; GEM 200 mg/kg): 3.0%
Cell Kill ([3]; GEM 200 mg/kg): 3.7 LOG10
MST ([3]; GEM 200 mg/kg): 14.5 days
Survivors ([3]; GEM 200 mg/kg): 0/6
% ILS ([3]; GEM 300 mg/kg): 81%
% Weight Change, day 5 ([3]; GEM 300 mg/kg): 2.3%
Cell Kill ([3]; GEM 300 mg/kg): 3.7 LOG10
MST ([3]; GEM 300 mg/kg): 14.5 days
Survivors ([3]; GEM 300 mg/kg): 0/6
% Weight Change, day 5 ([3]; GEM 400 mg/kg): 1.8%
Cell Kill ([3]; GEM 400 mg/kg): 4.0 LOG10
MST ([3]; GEM 400 mg/kg): 15 days
Survivors ([3]; GEM 400 mg/kg): 0/6
% ILS ([3]; GEM 400 mg/kg, hydrochloride): 88%
% ILS ([3]; GEM 400 mg/kg, listed as free gemcitabine, hydrochloride): 87.5%
% ILS ([3]; GEM 500 mg/kg): 75%
% Weight Change, day 5 ([3]; GEM 500 mg/kg): 0.0%
Cell Kill ([3]; GEM 500 mg/kg): 3.4 LOG10
MST ([3]; GEM 500 mg/kg): 14 days
Survivors ([3]; GEM 500 mg/kg): 0/10
maximum therapeutic dose ([3]; P388 model, single agent): 400 mg/kg
overall response rate ([4]; 800-1250 mg/m2, in combination with cisplatin): 50%
overall response rate ([4]; 800-1250 mg/m2, single agent): 20%
median survival ([4]; in combination with cisplatin): greater than 1 year
AUC0-t ([5]; Tlast 4 hours): 0.1^b μmole · h · ml^−1
AUMC ([5]; plasma): 0.3 μmole · h^2 · ml^−1
MRT last [5, 8]: 3.1 h
clearance [5, 8]: 0.102 mL/min
half-life [5, 8]: 2.1 h

CC(=O)[C@]1(O)Cc2c(O)c3c(c(O)c2[C@@H](O[C@H]2C[C@H](N)[C@H](O)[C@H](C)O2)C1)C(=O)c1ccccc1C3=O [IDA, idarubicin hydrochloride]
IC50 [1]: 1.8 nM
IC90 [1]: 5.7 nM
dose reduction index (DRI) [1, 6]: 11.8
dose reduction index (DRI) [1, 7]: 8.5
fold reduction in concentration required ([1]; at IC90, GEM/IDA 10:1 fixed ratio): 180 fold
% ILS ([3]; IDA 0.5 mg/kg): 13%
% Weight Change, day 5 ([3]; IDA 0.5 mg/kg): 13.6%
Cell Kill ([3]; IDA 0.5 mg/kg): 0.6 LOG10
MST ([3]; IDA 0.5 mg/kg): 9 days
Survivors ([3]; IDA 0.5 mg/kg): 0/12
% ILS ([3]; IDA 1 mg/kg): 50%
% Weight Change, day 5 ([3]; IDA 1 mg/kg): 2.1%
Cell Kill ([3]; IDA 1 mg/kg): 2.3 LOG10
MST ([3]; IDA 1 mg/kg): 12 days
Survivors ([3]; IDA 1 mg/kg): 0/12
% ILS ([3]; IDA 2 mg/kg): 113%
% Weight Change, day 5 ([3]; IDA 2 mg/kg): −1.4%
Cell Kill ([3]; IDA 2 mg/kg): 5.1 LOG10
MST ([3]; IDA 2 mg/kg): 17 days
Survivors ([3]; IDA 2 mg/kg): 1/12

Reference: patent publication US20080213183A1, “Free or Liposomal Gemcitabine Alone or in Combination with Free or Liposomal Idarubicin” (priority 2004, published 2008)
